Experimental data from patent US20250353891A1 (MEDIMMUNE LIMITED, priority 2022, published 2025).
“And” between values parts separate entries of the source, which are not always exact repeats. Equal values may be shown once. Starred links: 1 amine or outer side, 2 acyl side, 3 side chain; linkers in the order of their positions; H or OH if unused. Non-standard residues stand in square brackets, D forms with d. Residues, ends and D or L forms follow the SMILES beside them. Groups on a side chain read outwards from the residue. *: point of attachment. Dip = N[C@H](C(=O)O)C(c1ccccc1)c1ccccc1; γGlu = O=C(O)[C@H](CCC(=O)[*:2])N[*:1]; Stearoyl = CCCCCCCCCCCCCCCCCC(=O)*; αMeF = C[C@](N)(Cc1ccccc1)C(=O)O; PEG2 = NCCOCCOCCC(=O)O; Aib = CC(C)(N)C(=O)O

How the values were obtained:
[1] = biological target: human GLP-1 receptor (hGLP-1R) (Homo sapiens, UniProt P43220); experiment: cAMP production (HTRF) in CHO cells expressing hGLP-1R; type: cell-based; design: expressed in transfected cells; details: for EC50: Table 6, peptides modified at position 17, cAMP in CHO hGLP-1R cells, geometric mean, read-out: hGLP-1R EC50; for % Relative Potency Ratio: Table 6, % GLP-1R activity relative to GLP-1 / % GlucR activity relative to glucagon
Sequence of human GLP-1 receptor (hGLP-1R) (P43220 24-463): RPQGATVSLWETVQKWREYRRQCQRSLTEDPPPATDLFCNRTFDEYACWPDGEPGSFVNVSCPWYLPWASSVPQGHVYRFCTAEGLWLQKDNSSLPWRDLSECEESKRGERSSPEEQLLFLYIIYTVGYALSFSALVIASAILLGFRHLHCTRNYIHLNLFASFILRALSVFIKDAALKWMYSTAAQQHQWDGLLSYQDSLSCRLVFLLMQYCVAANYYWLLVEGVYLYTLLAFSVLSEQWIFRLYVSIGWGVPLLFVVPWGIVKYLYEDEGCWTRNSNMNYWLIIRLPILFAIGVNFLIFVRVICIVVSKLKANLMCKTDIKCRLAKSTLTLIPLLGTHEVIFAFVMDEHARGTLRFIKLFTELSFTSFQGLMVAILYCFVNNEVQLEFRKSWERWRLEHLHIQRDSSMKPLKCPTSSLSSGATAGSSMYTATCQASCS
Procedure, shortened: (§1)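 Potency values represent EC50 from 4-parameter logistic curves of HTRF % Delta F signal. Receptor-expressing CHO cells (hGCGR 2×10^5 cells/mL, hGLP-1R 1×10^5 cells/mL) were exposed for 30 min at room temperature before two-step cAMP detection.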

[2] = biological target: human glucagon receptor (hGCGR) (Homo sapiens, UniProt P47871); experiment: cAMP production (HTRF) in CHO cells expressing hGCGR; type: cell-based; design: expressed in transfected cells; details: Table 6, peptides modified at position 17; cAMP in CHO hGCGR cells; geometric mean; read-out: hGluc-R EC50
Sequence of human glucagon receptor (hGCGR) (P47871 26-477): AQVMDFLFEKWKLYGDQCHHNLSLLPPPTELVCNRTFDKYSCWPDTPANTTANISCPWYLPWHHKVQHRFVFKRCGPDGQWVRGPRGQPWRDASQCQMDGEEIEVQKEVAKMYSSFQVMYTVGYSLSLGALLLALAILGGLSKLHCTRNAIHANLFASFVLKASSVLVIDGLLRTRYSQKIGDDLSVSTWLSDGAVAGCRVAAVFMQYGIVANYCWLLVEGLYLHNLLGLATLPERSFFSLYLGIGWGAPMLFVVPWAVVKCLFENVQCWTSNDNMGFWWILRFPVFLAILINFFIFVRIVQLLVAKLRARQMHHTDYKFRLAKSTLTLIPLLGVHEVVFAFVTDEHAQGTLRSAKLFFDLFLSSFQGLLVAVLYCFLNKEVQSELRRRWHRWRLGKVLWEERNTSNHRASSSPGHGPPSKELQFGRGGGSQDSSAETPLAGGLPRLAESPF
Procedure, shortened: as §1

[3] = Mouse acute food intake study; type: in vivo; details: male C57Bl/6 mice, s.c., cumulative food intake at 24 hr vs vehicle
Procedure, shortened: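 Peptide or vehicle went subcutaneously (5 mL/kg) to 6-8 h-fasted male C57Bl/6 mice shortly before the dark phase, with groups balanced on body weight and 24-hour intake. Cumulative food consumption was derived from 48 h of automated BioDaq monitoring with free food and water access.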

[4] = Proteolytic resistance to FasSSIF/Pancreatin; type: in vitro ADME; details: simulated intestinal fluid
Procedure: A fresh suspension of FasSSIF/P (Fasted-State Simulated Intestinal Fluid+USP Pancreatin®) was prepared according to that described by Galia, Nicolaides, Hörter, Löbenberg, Reppas and Dressman: Pharm. Res. 15 (1998) 698-705, and USP XL requirements. The resulting preparation was used immediately without storage.
Peptide for evaluation (1.0 mg) was dissolved in pre-warmed FasSSIF without Pancreatin® (200 μL). To this fresh FasSSIF/Pancreatin® (100 μL) was added to initiate potential proteolysis. Following momentary vortexing of the reaction tube the mixture was incubated at 37° C. in a thermostatic water bath for the duration of the experiment. 25 μL aliquot of the co-incubated peptide-enzyme mixture was periodically withdrawn (t=0, 5, 10 15 and 30 min) and quenched immediately by addition to a solution of 10% TFA in 1:1 water/acetonitrile (75 μL) to arrest proteolytic activity. Quenched samples were centrifuged (7800 RPM, 3 mins) to pellet solids and 10 μL aliquots of the supernatant solution were analyzed using analytical RP-HPLC as follows: Analytical RP-HPLC method: Agilent Polaris C8-A column (4.6×100 mm, 3 micron) eluted with a linear binary gradient of 10-90% MeCN (0.1% TFA v/v) in water (0.1% TFA v/v) over either 10 or 15 mins at 1.5 mL min^−1 at 40° C. with detection by UV absorption at 210 nm. Manual integration (AUC) allowed estimation of remaining intact peptide over the time course of the experiment.

wildtype (WT) mice = experiment: Glucose change in wildtype mice; type: in vivo, mouse; details: s.c.; for WT % glucose change 120 min: 120 min vs 0 min, somatostatin pretreatment (octreotide) 30 min prior to cpd; for WT % glucose change 60 min: 60 min vs 0 min, no somatostatin pretreatment
Procedure: (§2) GLP-1R knockout (KO) and wildtype (WT) mice at 8-14 weeks of age were singly housed on standard chow diet (Envigo, 2918) and automatic water. They acclimated for a minimum of ˜1-2 weeks, and mice were sorted into groups (n=4-8/group) based on body weight. On day of study, mice were fasted briefly for 2 hrs prior to study start. In some studies, mice were pre-treated with octreotide (BaChem, 10 mg/kg) at 30 minutes prior to peptide injection. Glucose was measured via glucometer at various timepoints including-30 min (prior to octreotide when used in studies), 0 min (before peptide dose), 30, 60, 120, 180, 240, and 360 minutes. Since these studies are acute in nature, mice were re-used for multiple studies (no more than 3) and always allowed at least a minimum wash-out period of 1 week.

[5] = system: GLP-1R knockout (KO) mice; experiment: Glucose change in GLP-1R knockout mice; type: in vivo, mouse; details: GLP-1R KO mice, s.c.; for GLP-1R KO % glucose change 120 min: 120 min vs 0 min, somatostatin pretreatment (octreotide) 30 min prior to cpd; for GLP-1R KO % glucose change - 60 min: 60 min vs 0 min, no somatostatin pretreatment
Procedure: as §2, with “They” for “GLP-1R knockout (KO) and wildtype (WT) mice at 8-14 weeks of age were singly housed on standard chow diet (Envigo, 2918) and automatic water. They”

EC50 [1] [pM]	% Relative Potency Ratio [1]	EC50 [2] [pM]	remaining at 5 min, 3.3 mg/mL [4] [%]	remaining at 10 min, 3.3 mg/mL [4] [%]	remaining at 0.25 h, 3.3 mg/mL [4] [%]	remaining at 0.5 h, 3.3 mg/mL [4] [%]	Compound	24 hr % Vehicle Food Intake ([3]; dose 10 nmol/kg)	WT % glucose change 120 min (wildtype (WT) mice; 10 nmol/kg) [%]	WT % glucose change 120 min (wildtype (WT) mice; 30 nmol/kg) [%]	GLP-1R KO % glucose change 120 min ([5]; 10 nmol/kg) [%]	GLP-1R KO % glucose change 120 min ([5]; 30 nmol/kg) [%]	WT % glucose change 60 min (wildtype (WT) mice; 10 nmol/kg) [%]	WT % glucose change 60 min (wildtype (WT) mice; 30 nmol/kg) [%]	GLP-1R KO % glucose change - 60 min ([5]; 10 nmol/kg) [%]	GLP-1R KO % glucose change - 60 min ([5]; 30 nmol/kg) [%]	24 hr % Vehicle Food Intake ([3]; dose 1 nmol/kg) [%]	24 hr % Vehicle Food Intake ([3]; dose 3 nmol/kg) [%]
1.72	2.7	2.38	90	88	83	75	CCCCCCCCCCCCCCCCCC(=O)N[C@@H](CCC(=O)N[C@@H](CCC(=O)NCCOCCOCCC(=O)NCCOCCOCCC(=O)NCCCC[C@H](NC(=O)[C@H](CO)NC(=O)[C@H](CC(=O)O)NC(=O)[C@H](CC(C)C)NC(=O)[C@@H](NC(=O)[C@H](CCCCN)NC(=O)[C@H](CO)NC(=O)[C@@H](NC(=O)[C@H](CC(=O)O)NC(=O)[C@H](CO)NC(=O)[C@@H](NC(=O)[C@](C)(Cc1ccccc1)NC(=O)[C@H](CO)NC(=O)CNC(=O)[C@H](CCC(N)=O)NC(=O)[C@H](CO)NC(=O)[C@@H](N)Cc1c[nH]cn1)[C@@H](C)O)C(C)C)C(c1ccccc1)c1ccccc1)C(=O)N[C@@H](C)C(=O)N[C@@H](C)C(=O)N[C@@H](CCC(N)=O)C(=O)N[C@@H](CC(=O)O)C(=O)N[C@@](C)(Cc1ccccc1)C(=O)N[C@H](C(=O)N[C@@H](CCC(=O)O)C(=O)NC(C)(C)C(=O)N[C@@H](CC(C)C)C(=O)N[C@@H](C)C(=O)N[C@@H](CC(N)=O)C(=O)N[C@H](C(N)=O)[C@@H](C)O)C(C)C)C(=O)O)C(=O)O [Peptide 47] (H-HSQGS[αMeF]TSDVSK[Dip]LDSK([PEG2-PEG2-γGlu-γGlu-Stearoyl])AAQD[αMeF]VE[Aib]LANT-NH2; N-terminus assumed)	51.4%										
4.9	3.5	8.74				98	CCCCCCCCCCCCCCCCCC(=O)N[C@@H](CCC(=O)N[C@@H](CCC(=O)NCCOCCOCCC(=O)NCCOCCOCCC(=O)NCCCC[C@H](NC(=O)[C@H](CO)NC(=O)[C@H](CC(=O)O)NC(=O)[C@H](CC(C)C)NC(=O)[C@@H](NC(=O)[C@H](CCCCN)NC(=O)[C@H](CO)NC(=O)[C@@H](NC(=O)[C@H](CC(=O)O)NC(=O)[C@H](CO)NC(=O)[C@@H](NC(=O)[C@](C)(Cc1ccccc1)NC(=O)[C@H](CO)NC(=O)CNC(=O)[C@H](CCC(N)=O)NC(=O)[C@H](CO)NC(=O)[C@@H](N)Cc1c[nH]cn1)[C@@H](C)O)C(C)C)C(c1ccccc1)c1ccccc1)C(=O)N[C@@H](C)C(=O)N[C@@H](C)C(=O)N[C@@H](CCC(N)=O)C(=O)N[C@@H](CC(=O)O)C(=O)N[C@@](C)(Cc1ccccc1)C(=O)N[C@H](C(=O)N[C@@H](CCC(=O)O)C(=O)NC(C)(C)C(=O)N[C@H](C(=O)N[C@H](C(=O)N[C@@H](CC(N)=O)C(=O)N[C@H](C(N)=O)[C@@H](C)O)[C@@H](C)CC)[C@@H](C)CC)C(C)C)C(=O)O)C(=O)O [Peptide 50] (H-HSQGS[αMeF]TSDVSK[Dip]LDSK([PEG2-PEG2-γGlu-γGlu-Stearoyl])AAQD[αMeF]VE[Aib]IINT-NH2)	78.5%										
1.05	24.3	13					CCCCCCCCCCCCCCCCCC(=O)N[C@@H](CCC(=O)N[C@@H](CCC(=O)NCCOCCOCCC(=O)NCCOCCOCCC(=O)NCCCC[C@H](NC(=O)[C@H](CO)NC(=O)[C@H](CC(=O)O)NC(=O)[C@H](CC(C)C)NC(=O)C(C)(C)NC(=O)[C@H](CCCCN)NC(=O)[C@H](CO)NC(=O)[C@@H](NC(=O)[C@H](CC(=O)O)NC(=O)[C@H](CO)NC(=O)[C@@H](NC(=O)[C@](C)(Cc1ccccc1)NC(=O)[C@H](CO)NC(=O)CNC(=O)[C@H](CCC(N)=O)NC(=O)[C@H](CO)NC(=O)[C@@H](N)Cc1c[nH]cn1)[C@@H](C)O)C(C)C)C(=O)N[C@@H](C)C(=O)N[C@@H](C)C(=O)N[C@@H](CCC(N)=O)C(=O)N[C@@H](CC(=O)O)C(=O)N[C@@](C)(Cc1ccccc1)C(=O)N[C@H](C(=O)N[C@@H](CCC(N)=O)C(=O)NC(C)(C)C(=O)N[C@H](C(=O)N[C@@H](C)C(=O)N[C@@H](CC(N)=O)C(N)=O)[C@@H](C)CC)C(C)C)C(=O)O)C(=O)O [Peptide 97] (H-HSQGS[αMeF]TSDVSK[Aib]LDSK([PEG2-PEG2-γGlu-γGlu-Stearoyl])AAQD[αMeF]VQ[Aib]IAN-NH2; N-terminus assumed)		−41.9	−14.7	91.1	150.8						
							CC(C)C[C@H](NC(=O)[C@H](Cc1c[nH]c2ccccc12)NC(=O)[C@H](CCC(N)=O)NC(=O)[C@@H](NC(=O)[C@H](Cc1ccccc1)NC(=O)[C@H](CC(=O)O)NC(=O)[C@H](CCCNC(=N)N)NC(=O)[C@H](C)NC(=O)[C@H](CCCNC(=N)N)NC(=O)[C@H](CCCCNC(=O)COCCOCCNC(=O)COCCOCCNC(=O)CC[C@H](NC(=O)CCCCCCCCCCCCCCCCCCC(=O)O)C(=O)O)NC(=O)[C@@H](NC(=O)[C@H](CC(=O)O)NC(=O)[C@H](CC(C)C)NC(=O)[C@](C)(Cc1ccccc1)NC(=O)[C@H](CCCCN)NC(=O)[C@H](CO)NC(=O)[C@@H](NC(=O)[C@H](CC(=O)O)NC(=O)[C@H](CO)NC(=O)[C@@H](NC(=O)[C@H](Cc1ccccc1)NC(=O)[C@@H](NC(=O)CNC(=O)[C@H](CCC(N)=O)NC(=O)C(C)(C)NC(=O)[C@@H](N)Cc1c[nH]cn1)[C@@H](C)O)[C@@H](C)O)C(C)C)[C@@H](C)O)C(C)C)C(=O)N[C@@H](CC(C)C)C(=O)N[C@@H](CCC(=O)O)C(=O)NC(C)(C)C(=O)NCC(=O)O [Peptide 195, H-Aib-Q-G-T-F-T-S-D-V—S-K-αMePhe-L-D-T-K-R-A-R-D-F-V-Q-W-L-L-E-Aib-G-acid]	58.2% and 49.9%					1.4	−17.0	35.3	48.0	102.1	84.0
